The molecules below were run against T1, Recombinant human Src (Homo sapiens, UniProt P12931) (assay: Src tyrosine kinase activity assay with poly E4Y and 32P-ATP). Details: poly E4Y, 32P-ATP; NI = no inhibition; read-out: IC50 Value Src.
T1 construct: made in house; host or cells: baculovirus-insect cell system
Assay type: biochemical
Protocol: Recombinant human Src was expressed using the baculovirus-insect cell system and purified as published (Budde et al., 1993 and 2000). Recombinant Csk and the FGF receptor (FGFr) were expressed as […] fusion proteins using the pGEX expression vector and E. coli, and purified as described (Sun & Budde, 1995).
The tyrosine kinase activity of Src, Csk and FGFr was determined using poly E4Y and ^32P-ATP. Briefly, enzymes were assayed in a reaction mixture […] consisting of 0.15 M EPPS-NaOH (pH 8.0) with 6 mM MgCl2, 0.2 mM γ^32P-ATP (0.2-0.4 mCi/μmol), 10% glycerol, 0.1% Triton X-100, and poly E4Y. Poly E4Y is a synthetic peptide whose phosphorylation is measured in this assay by the addition of the radioactively labeled phosphate from the ATP (Budde et al., 1995). […] When ATP was varied (0, 50, 100 and 250 μM), poly E4Y was kept constant at 150 μg/ml.

Compared with “4-Carboxybenzaldehyde (6-(4-aminomethyl)phenyl-7-methylthieno[3,2-d]pyrimidin-4-yl)hydrazone [Compound 2]”, `CCOc1ccccc1-c1sc2c(NN=Cc3ccc(OC)c(O)c3)ncnc2c1COCC(O)CO` (racemic) [Compound 56, 3-Hydroxy-4-methoxybenzaldehyde(7-((±)-4,5-dihydroxy-2-oxopentyl) (6-(2-ethoxyphenyl)thieno[3,2-d]pyrimidin-4-yl)hydrazone] is 5-fold higher in IC50: 24 nM for the first, 120 nM for the second. The first is the more potent here.

Compared with `CCOc1ccccc1-c1sc2c(NN=Cc3ccc(OC)c(OCCN(CC)CC)c3)ncnc2c1C` (single isomer, unassigned) [Compound 158], `Cc1c(-c2ccc(CN)cc2)sc2c(NN=Cc3cccnc3)ncnc12` [Compound 3, 3-Pyridinecarboxaldehyde (6-(4-aminomethyl)phenyl-7-methylthieno[3,2-d]pyrimidin-4-yl)hydrazone] is 1600-fold higher in IC50: 0.015 nM for the first, 24 nM for the second.

`Cc1c(-c2ccc(CN)cc2)sc2c(NN=Cc3cccs3)ncnc12` [Compound 4, 2-Thiophenecarboxaldehyde (6-(4-aminomethyl)phenyl-7-methylthieno[3,2-d]pyrimidin-4-yl)hydrazone] and `COc1ccc(C=NNc2ncnc3c(C)c(-c4ccc(CN)cc4)sc23)cc1O` [Compound 5, 3-Hydroxy-4-methoxybenzaldehyde (6-(4-aminomethyl)phenyl-7-methylthieno[3,2-d]pyrimidin-4-yl)hydrazone] are within 1.5-fold of each other in IC50: 28 nM for the first, 32 nM for the second.

Compared with `Cc1c(-c2cccc(CN)c2)sc2c(NN=Cc3cccnc3)ncnc12` [Compound 6, 3-Pyridinecarboxaldehyde (6-(3-aminomethyl)phenyl-7-methylthieno[3,2-d]pyrimidin-4-yl)hydrazone], `COc1ccc(C=NNc2ncnc3c(C)c(-c4ccccc4CN)sc23)cc1O` [Compound 7, 3-Hydroxy-4-methoxybenzaldehyde (6-(2-aminomethyl)phenyl-7-methylthieno[3,2-d]pyrimidin-4-yl)hydrazone] is 7.5-fold higher in IC50: 16 nM for the first, 120 nM for the second. The first is the more potent here.

First: Cc1c(-c2ccc(N)cc2)sc2c(NN=Cc3cccnc3)ncnc12 [Compound 8, 3-Pyridinecarboxaldehyde (6-(4-aminophenyl)-7-methylthieno[3,2-d]pyrimidin-4-yl)hydrazone]
Second: Cc1c(-c2ccc(N)cc2)sc2c(NN=Cc3cccs3)ncnc12 [Compound 9, 2-Thiophenecarboxaldehyde (6-(4-aminophenyl)-7-methylthieno[3,2-d]pyrimidin-4-yl)hydrazone]
The IC50 of the first is 2-fold lower: 9.6 nM for the first, 19 nM for the second.

Compared with `COc1ccc(C=NNc2ncnc3c(C)c(-c4ccc(N)cc4)sc23)cc1O` [Compound 10, 3-Hydroxy-4-methoxybenzaldehyde (6-(4-aminophenyl)-7-methylthieno[3,2-d]pyrimidin-4-yl)hydrazone], `Cc1c(-c2cccc(N)c2)sc2c(NN=Cc3cccnc3)ncnc12` [Compound 11, 3-Pyridinecarboxaldehyde (6-(3-aminophenyl)-7-methylthieno[3,2-d]pyrimidin-4-yl)hydrazone] is 1.8-fold lower in IC50: 8.7 nM for the first, 4.9 nM for the second. The second is the more potent here.

Going from `COc1ccc(C=NNc2ncnc3c(C)c(-c4cccc(N)c4)sc23)cc1O` [Compound 12, 3-Hydroxy-4-methoxybenzaldehyde (6-(3-aminophenyl)-7-methylthieno[3,2-d]pyrimidin-4-yl)hydrazone] to `COc1ccc(C=NNc2ncnc3c(C)c(-c4ccccc4N)sc23)cc1O` [Compound 13, 3-Hydroxy-4-methoxybenzaldehyde (6-(2-aminophenyl)-7-methylthieno[3,2-d]pyrimidin-4-yl)hydrazone], the IC50 rises from 1.2 nM to 38 nM (32-fold). The first is the more potent here.

Compared with `Cc1c(CN2CCOCC2)sc2c(NN=Cc3cccnc3)ncnc12` [Compound 15, 3-Pyridinecarboxaldehyde (7-methyl-6-(morpholin-4-yl)methyllthieno[3,2-d]pyrimidin-4-yl)hydrazone], `Cc1nc[nH]c1C=NNc1ncnc2c(C)c(CN3CCOCC3)sc12` [Compound 16, 4-Methyl-5-imidazolecarboxaldehyde (7-methyl-6-(morpholin-4-yl)methyllthieno[3,2-d]pyrimidin-4-yl)hydrazone] is 1.9-fold higher in IC50: 320 nM for the first, 620 nM for the second.

Going from `COc1ccc(C=NNc2ncnc3c(C)c(-c4cccc(CN5CCOCC5)c4)sc23)cc1O` [Compound 17, 3-Hydroxy-4-methoxybenzaldehyde (7-methyl-6-(3-(morpholin-4-yl)methyl)phenylthieno[3,2-d]pyrimidin-4-yl)hydrazone] to `COc1ccc(C=NNc2ncnc3c(C)c(CNc4ccccc4)sc23)cc1O` [Compound 18], the IC50 rises from 26 nM to 550 nM (21-fold).

Going from `COc1ccc(C=NNc2ncnc3c(C)c(-c4cccc(C(N)=O)c4)sc23)cc1O` [Compound 19, 3-Hydroxy-4-methoxybenzaldehyde (6-(3-aminocarbonylphenyl)-7-methylthieno[3,2-d]pyrimidin-4-yl)hydrazone] to `Cc1c(-c2cccc(C(N)=O)c2)sc2c(NN=Cc3cccs3)ncnc12` [Compound 20, 2-Thiophenecarboxaldehyde (6-(3-aminocarbonylphenyl)-7-methylthieno[3,2-d]pyrimidin-4-yl)hydrazone], the IC50 rises from 14 nM to 54 nM (3.9-fold). The first is the more potent here.

Going from `Cc1c(-c2cccc(C(N)=O)c2)sc2c(NN=Cc3cccnc3)ncnc12` [Compound 21, 3-Pyridinecarboxaldehyde (6-(3-aminocarbonylphenyl)-7-methylthieno[3,2-d]pyrimidin-4-yl)hydrazone] to `Cc1c(-c2cccc(C(N)=O)c2)sc2c(NN=Cc3ccc(C(=O)O)cc3)ncnc12` [Compound 22, 4-Carboxybenzaldehyde (6-(3-aminocarbonylphenyl)-7-methylthieno[3,2-d]pyrimidin-4-yl)hydrazone], the IC50 falls from 91 nM to 41 nM (2.2-fold). The second is the more potent here.

First: COc1ccc(C=NNc2ncnc3c(C)c(-c4ccc(C(N)=O)cc4)sc23)cc1O [Compound 23, 3-Hydroxy-4-methoxybenzaldehyde (6-(4-aminocarbonylphenyl)-7-methylthieno[3,2-d]pyrimidin-4-yl)hydrazone]
Second: Cc1c(-c2ccc(C(N)=O)cc2)sc2c(NN=Cc3cccnc3)ncnc12 [Compound 24, 3-Pyridinecarboxaldehyde (6-(4-aminocarbonylphenyl)-7-methylthieno[3,2-d]pyrimidin-4-yl)hydrazone]
The IC50 of the first is 1.5-fold higher: 20 nM for the first, 13 nM for the second.

`Cc1c(-c2ccc(C(N)=O)cc2)sc2c(NN=Cc3cccs3)ncnc12` [Compound 25, 2-Thiophenecarboxaldehyde (6-(4-aminocarbonylphenyl)-7-methylthieno[3,2-d]pyrimidin-4-yl)hydrazone] and `Cc1c(-c2ccc(C(N)=O)cc2)sc2c(NN=Cc3ccc(C(=O)O)cc3)ncnc12` [Compound 26, 4-Carboxybenzaldehyde (6-(4-aminocarbonylphenyl)-7-methylthieno[3,2-d]pyrimidin-4-yl)hydrazone] are within 1.5-fold of each other in IC50: 26 nM for the first, 36 nM for the second.

Compared with `COc1ccc(C=NNc2ncnc3c(C)c(-c4cccc(C#N)c4)sc23)cc1O` [Compound 27, 3-Hydroxy-4-methoxybenzaldehyde (6-(3-cyanophenyl)-7-methylthieno[3,2-d]pyrimidin-4-yl)hydrazone], `Cc1c(-c2cccc(C#N)c2)sc2c(NN=Cc3cccs3)ncnc12` [Compound 28, 2-Thiophenecarboxaldehyde (6-(3-cyanophenyl)-7-methylthieno[3,2-d]pyrimidin-4-yl)hydrazone] is 24-fold higher in IC50: 58 nM for the first, 1400 nM for the second. The first is the more potent here.

Compared with `Cc1c(-c2cccc(C#N)c2)sc2c(NN=Cc3cccnc3)ncnc12` [Compound 29, 3-Pyridinecarboxaldehyde (6-(3-cyanophenyl)-7-methylthieno[3,2-d]pyrimidin-4-yl)hydrazone], `Cc1c(-c2cccc(C#N)c2)sc2c(NN=Cc3ccc(C(=O)O)cc3)ncnc12` [Compound 30, 4-Carboxybenzaldehyde (6-(3-cyanophenyl)-7-methylthieno[3,2-d]pyrimidin-4-yl)hydrazone] is 5.9-fold higher in IC50: 27 nM for the first, 160 nM for the second. The first is the more potent here.

Going from `COc1ccc(C=NNc2ncnc3c(C)c(-c4ccccc4C#N)sc23)cc1O` [Compound 31, 3-Hydroxy-4-methoxybenzaldehyde (6-(2-cyanophenyl)-7-methylthieno[3,2-d]pyrimidin-4-yl)hydrazone] to `Cc1c(-c2cccc(C(=N)N)c2)sc2c(NN=Cc3cccnc3)ncnc12` [Compound 32], the IC50 falls from 74 nM to 41 nM (1.8-fold). The second is the more potent here.

Compared with `COc1ccc(C=NNc2ncnc3c(C)c(-c4ccc(F)cc4)sc23)cc1O` [Compound 36, 3-Hydroxy-4-methoxybenzaldehyde (6-(4-fluorophenyl)-7-methylthieno[3,2-d]pyrimidin-4-yl)hydrazone], `COc1ccc(C=NNc2ncnc3c(C)c(-c4ccc(O)cc4)sc23)cc1O` [Compound 38, 3-Hydroxy-4-methoxybenzaldehyde (6-(4-hydroxyphenyl)-7-methylthieno[3,2-d]pyrimidin-4-yl)hydrazone] is 3.8-fold lower in IC50: 57 nM for the first, 15 nM for the second. The second is the more potent here.

Going from `CCOc1ccccc1-c1sc2c(NN=Cc3ccc(OC)c(O)c3)ncnc2c1OC` [Compound 40, 3-Hydroxy-4-methoxybenzaldehyde (6-(2-ethoxyphenyl)-7-methoxythieno[3,2-d]pyrimidin-4-yl)hydrazone] to `CCOc1ccccc1-c1sc2c(NN=Cc3ccc(OC)c(O)c3)ncnc2c1OCCN1CCOCC1` [Compound 41, 3-Hydroxy-4-methoxybenzaldehyde (6-(2-ethoxyphenyl)-7-(2-(morpholin-4-yl)-ethoxy)thieno[3,2-d]pyrimidin-4-yl)hydrazone], the IC50 rises from 22 nM to 340 nM (15-fold). The first is the more potent here.

Work on `CCOCc1c(-c2ccccc2OCC)sc2c(NN=Cc3ccc(OC)c(O)c3)ncnc12` [Compound 44] yielded an IC50 of 79 nM.

Source: patent US20060004002A1 (priority 2004, published 2006)
